Legend:
DDR2 = target: T1, DDR2 (Homo sapiens, UniProt Q16832); assay: DDR2 binding assay (LanthaScreen Europium Kinase Binding assay); design: purchased Life Technologies; details: binding assay, 5 nM DDR2, 10 nM Kinase Tracer 178; Ki from IC50 by Cheng-Prusoff; read-out: Ki DDR2
T1 sequence (Q16832 22-855): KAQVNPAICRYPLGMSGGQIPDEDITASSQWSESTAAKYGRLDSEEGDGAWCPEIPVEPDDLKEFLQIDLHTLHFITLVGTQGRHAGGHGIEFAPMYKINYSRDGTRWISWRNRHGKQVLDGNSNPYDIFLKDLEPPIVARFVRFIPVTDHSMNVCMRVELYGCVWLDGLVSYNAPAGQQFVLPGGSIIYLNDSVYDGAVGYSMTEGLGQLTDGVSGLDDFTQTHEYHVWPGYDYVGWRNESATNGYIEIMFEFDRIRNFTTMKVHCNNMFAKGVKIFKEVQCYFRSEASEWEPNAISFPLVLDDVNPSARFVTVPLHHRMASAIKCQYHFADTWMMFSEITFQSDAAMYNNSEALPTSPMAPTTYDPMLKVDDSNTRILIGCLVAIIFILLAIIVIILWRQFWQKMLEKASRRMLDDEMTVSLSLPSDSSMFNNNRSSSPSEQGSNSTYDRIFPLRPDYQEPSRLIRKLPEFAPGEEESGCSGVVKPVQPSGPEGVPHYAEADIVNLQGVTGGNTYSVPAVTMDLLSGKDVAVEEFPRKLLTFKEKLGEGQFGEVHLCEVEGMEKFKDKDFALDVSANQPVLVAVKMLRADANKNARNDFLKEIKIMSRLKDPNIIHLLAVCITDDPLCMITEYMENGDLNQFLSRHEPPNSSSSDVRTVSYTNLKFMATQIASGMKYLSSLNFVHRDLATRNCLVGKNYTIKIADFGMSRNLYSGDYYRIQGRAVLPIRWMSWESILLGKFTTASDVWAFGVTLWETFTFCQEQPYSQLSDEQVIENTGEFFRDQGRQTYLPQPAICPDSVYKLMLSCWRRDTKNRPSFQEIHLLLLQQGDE
Procedure: (§1) DDR1 and DDR2 binding assays were performed using Life Technologies LanthaScreen™ Europium Kinase Binding assay. The compounds were incubated with 5 nM DDR1 (Carna Biosciences) or 5 nM DDR2 (Life Technologies) for 1 hour at room temperature in white 384-well OptiPlate (PerkinElmer), containing 20 nM or 10 nM Kinase Tracer 178 respectively and 2 nM Europium labelled anti-GST antibody (Life Technologies) in assay buffer (50 mM HEPES pH 7.5, 10 mM MgCl2, 1 mM EGTA and 0.01% BRIJ35).
(§2) The ratio of fluorescence emission 665 nm/615 nm after excitation at 340 nm was obtained using the Tecan Spark 20M plate reader. IC50 values were determined in GraphPad Prism 7.0 software, using 4 parameter model: log(inhibitor) vs. response. IC50 values were converted in Ki using the Cheng-Prusoff equation

DDR1 [1] = target: T2, DDR1 (Homo sapiens, UniProt Q08345); assay: DDR1 cell based assay (PathHunter U2OS DDR1 assay); design: host or cells: U2OS-DDR1 (PathHunter); details: U2OS-DDR1 cells, bovine Type II Collagen 20 μg/ml
Procedure: The inhibition of DDR1 receptor activation by compounds was evaluated by PathHunter® U2OS DDR1 assay (Eurofins DiscoverX), according to the manufacturer's instructions. Briefly, U2OS-DDR1 cells were seeded in white 384-well plates at a density of 5000 cells/well and incubated for 2 hours at 37° C. and 5% CO2. Cells were then treated with compounds at different concentrations and incubated for 30 minutes, before stimulation with bovine Type II Collagen 20 μg/ml and incubation overnight at 37° C. and 5% CO2. PathHunter Detection Reagents were prepared according to the protocol provided by DiscoverX and 20 μl/well of this mix were added to each well. After incubating the plates for 1 hour at room temperature in the dark, luminescence signal was acquired with a plate reader. Raw data were normalized to vehicle control (0% for normalization) and positive control (100% for normalization; cells treated with 20 μg/ml collagen II) and IC50 parameters were calculated in GraphPad Prism 8.0 software, using sigmoidal dose-response curve fitting with variable slope.

DDR1 [2] = target: T2, DDR1; assay: DDR1 binding assay (LanthaScreen Europium Kinase Binding assay); design: purchased Carna Biosciences; details: binding assay, 5 nM DDR1, 20 nM Kinase Tracer 178; Ki from IC50 by Cheng-Prusoff; read-out: Ki DDR1
Procedure: as §1, §2

T2 sequence (Q08345 19-913): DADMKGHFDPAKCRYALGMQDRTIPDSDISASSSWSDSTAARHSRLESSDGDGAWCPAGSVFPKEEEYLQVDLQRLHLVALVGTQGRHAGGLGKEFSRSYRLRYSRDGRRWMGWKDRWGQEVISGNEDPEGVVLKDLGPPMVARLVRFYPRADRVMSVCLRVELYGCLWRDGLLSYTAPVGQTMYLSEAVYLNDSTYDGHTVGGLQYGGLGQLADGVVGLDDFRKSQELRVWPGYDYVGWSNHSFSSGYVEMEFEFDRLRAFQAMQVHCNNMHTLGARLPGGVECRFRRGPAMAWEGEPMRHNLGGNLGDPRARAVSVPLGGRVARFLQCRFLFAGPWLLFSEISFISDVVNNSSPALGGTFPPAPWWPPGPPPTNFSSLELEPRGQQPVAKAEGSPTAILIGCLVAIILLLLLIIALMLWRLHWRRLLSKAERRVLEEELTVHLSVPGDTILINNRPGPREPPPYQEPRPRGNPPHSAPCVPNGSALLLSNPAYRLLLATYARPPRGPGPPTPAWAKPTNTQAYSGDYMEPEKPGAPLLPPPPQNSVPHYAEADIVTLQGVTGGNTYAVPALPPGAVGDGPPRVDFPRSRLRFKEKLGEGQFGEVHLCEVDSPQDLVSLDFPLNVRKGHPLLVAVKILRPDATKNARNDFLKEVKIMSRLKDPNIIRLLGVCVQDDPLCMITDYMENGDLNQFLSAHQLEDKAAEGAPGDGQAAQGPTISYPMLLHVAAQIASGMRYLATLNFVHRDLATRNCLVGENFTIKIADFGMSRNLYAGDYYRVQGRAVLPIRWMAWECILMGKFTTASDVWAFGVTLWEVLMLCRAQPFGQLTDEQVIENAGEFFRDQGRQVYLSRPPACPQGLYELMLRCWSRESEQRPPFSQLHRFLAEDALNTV

Row | SMILES | Ki (DDR2) [nM] | IC50 (DDR1 [1]) [nM] | Ki (DDR1 [2]) [nM]
1 | CN(C)[C@@H]1CCN(Cc2cc(NC(=O)c3csc4c3CCN(C(=O)c3cnc5ccccn35)C4)cc(C(F)(F)F)c2)C1 [Example 45, (R)-N-(3-((3-(dimethylamino)pyrrolidin-1-yl)methyl)-5-(trifluoromethyl)-phenyl)-6-(imidazo[1,2-a]pyridine-3-carbonyl)-4,5,6,7-tetrahydrothieno[2,3-c]pyridine-3-carboxamide] | < 25 | 25 to 50 | < 25
2 | O=C(Nc1cc(C(F)(F)F)ccn1)c1csc2c1CCN(C(=O)c1cnc3ccccn13)C2 [Example 29, 6-(imidazo[1,2-a]pyridine-3-carbonyl)-N-(4-(trifluoromethyl)pyridin-2-yl)-4,5,6,7-tetrahydrothieno[2,3-c]pyridine-3-carboxamide] | < 25 | 50 to 80 | < 25
3 | CCCc1cc(NC(=O)c2csc3c2CCN(C(=O)c2cnc4ccccn24)C3)n(C)n1 [Example 39, 6-(imidazo[1,2-a]pyridine-3-carbonyl)-N-(1-methyl-3-propyl-1H-pyrazol-5-yl)-4,5,6,7-tetrahydrothieno[2,3-c]pyridine-3-carboxamide] | < 25 | 25 to 50 | < 25
4 | COCCOc1ccc(NC(=O)c2csc3c2CCN(C(=O)c2cnc4ccccn24)C3)cc1C(F)(F)F [Example 15, 6-(imidazo[1,2-a]pyridine-3-carbonyl)-N-(4-(2-methoxyethoxy)-3-(trifluoromethyl)phenyl)-4,5,6,7-tetrahydrothieno[2,3-c]pyridine-3-carboxamide] | < 25 | 25 to 50 | < 25
5 | O=C(Nc1cc(F)cc(OC(F)(F)F)c1)c1csc2c1CCN(C(=O)c1cnc3ccccn13)C2 [Example 10, N-(3-fluoro-5-(trifluoromethoxy)phenyl)-6-(imidazo[1,2-a]pyridine-3-carbonyl)-4,5,6,7-tetrahydrothieno[2,3-c]pyridine-3-carboxamide] | < 25 | < 25 | < 25
6 | CC(C)(C)c1cc(NC(=O)c2csc3c2CCN(C(=O)c2cnc4ccccn24)C3)n(Cc2ccccc2)n1 [Example 41, N-(1-benzyl-3-(tert-butyl)-1H-pyrazol-5-yl)-6-(imidazo[1,2-a]pyridine-3-carbonyl)-4,5,6,7-tetrahydrothieno[2,3-c]pyridine-3-carboxamide] | < 25 | 25 to 50 | < 25
7 | Cc1ccc(-n2nc(C(C)(C)C)cc2NC(=O)c2csc3c2CCN(C(=O)c2cnc4ccccn24)C3)cc1 [Example 2, N-(3-(tert-butyl)-1-(p-tolyl)-1H-pyrazol-5-yl)-6-(imidazo[1,2-a]pyridine-3-carbonyl)-4,5,6,7-tetrahydrothieno[2,3-c]pyridine-3-carboxamide] | < 25 | 25 to 50 | < 25
8 | CN1CCC(Oc2ccc(NC(=O)c3csc4c3CCN(C(=O)c3cnc5ccccn35)C4)cc2C(F)(F)F)CC1 [Example 32, 6-(imidazo[1,2-a]pyridine-3-carbonyl)-N-(4-((1-methylpiperidin-4-yl)oxy)-3-(trifluoromethyl)phenyl)-4,5,6,7-tetrahydrothieno[2,3-c]pyridine-3-carboxamide] | < 25 | 25 to 50 | < 25
9 | O=C(Nc1cc(CN2CCCCC2)cc(C(F)(F)F)c1)c1csc2c1CCN(C(=O)c1cnc3ccccn13)C2 [Example 60, 6-(imidazo[1,2-a]pyridine-3-carbonyl)-N-(3-(piperidin-1-ylmethyl)-5-(trifluoromethyl)phenyl)-4,5,6,7-tetrahydrothieno[2,3-c]pyridine-3-carboxamide] | < 25 | 50 to 80 | < 25

Second part, the compound after the results:

Row | Ki (DDR2) [nM] | IC50 (DDR1 [1]) [nM] | Ki (DDR1 [2]) [nM] | SMILES
10 | < 25 | 50 to 80 | < 25 | CC(C)(C)c1cncc(NC(=O)c2csc3c2CCN(C(=O)c2cnn4ccncc24)C3)c1 [Example 123, N-(5-(tert-butyl)pyridin-3-yl)-6-(pyrazolo[1,5-a]pyrazine-3-carbonyl)-4,5,6,7-tetrahydrothieno[2,3-c]pyridine-3-carboxamide]
11 | < 25 | < 25 | < 25 | O=C(Nc1cccc(C(F)(F)F)c1)c1csc2c1CCN(Cc1cnc3ccnn3c1)C2 [Example 88, 6-(pyrazolo[1,5-a]pyrimidin-6-ylmethyl)-N-(3-(trifluoromethyl)phenyl)-4,5,6,7-tetrahydrothieno[2,3-c]pyridine-3-carboxamide]
12 | < 25 | 50 to 80 | < 25 | Cc1cn(-c2cc(NC(=O)c3csc4c3CCN(Cc3cnc5ccccn35)C4)cc(C(F)(F)F)c2)cn1 [Example 65, 6-(imidazo[1,2-a]pyridin-3-ylmethyl)-N-(3-(4-methyl-11H-imidazol-1-yl)-5-(trifluoromethyl)phenyl)-4,5,6,7-tetrahydrothieno[2,3-c]pyridine-3-carboxamide]
13 | < 25 | 50 to 80 | < 25 | CN(C)[C@@H]1CCN(C(=O)c2cc(NC(=O)c3csc4c3CCN(C(=O)c3cnc5ccccn35)C4)cc(C(F)(F)F)c2)C1 [Example 130, (R)-N-(3-(3-(dimethylamino)pyrrolidine-1-carbonyl)-5-(trifluoromethyl)phenyl)-6-(imidazo[1,2-a]pyridine-3-carbonyl)-4,5,6,7-tetrahydrothieno[2,3-c]pyridine-3-carboxamide]
14 | < 25 | 50 to 80 | < 25 | O=C(Nc1cccc(C(F)(F)F)c1)c1csc2c1CCN(C(=O)c1cnn3cccnc13)C2 [Example 94, 6-(pyrazolo[1,5-a]pyrimidine-3-carbonyl)-N-(3-(trifluoromethyl)phenyl)-4,5,6,7-tetrahydrothieno[2,3-c]pyridine-3-carboxamide]
15 | 25 to 50 | 25 to 50 | < 25 | CN1CCN(c2ccc3ncc(C(=O)N4CCc5c(C(=O)Nc6cc(C(C)(C)C)n(C)n6)csc5C4)n3c2)CC1 [Example 145, N-(5-(tert-butyl)-1-methyl-1H-pyrazol-3-yl)-6-(6-(4-methylpiperazin-1-yl)imidazo[1,2-a]pyridine-3-carbonyl)-4,5,6,7-tetrahydrothieno[2,3-c]pyridine-3-carboxamide]
16 | < 25 | 50 to 80 | < 25 | CN1CCN(c2cc(NC(=O)c3csc4c3CCN(C(=O)c3cnc5ccccn35)C4)cc(C(F)(F)F)c2)CC1 [Example 177, 6-(imidazo[1,2-a]pyridine-3-carbonyl)-N-(3-(4-methylpiperazin-1-yl)-5-(trifluoromethyl)phenyl)-4,5,6,7-tetrahydrothieno [2,3-c]pyridine-3-carboxamide]
17 | 25 to 50 | 25 to 50 | < 25 | CN(C)Cc1ccc2ncc(C(=O)N3CCc4c(C(=O)Nc5cccc(C(F)(F)F)c5)csc4C3)n2c1 [Example 135, 6-(6-((dimethylamino)methyl)imidazo[1,2-a]pyridine-3-carbonyl)-N-(3-(trifluoromethyl)phenyl)-4,5,6,7-tetrahydrothieno[2,3-c]pyridine-3-carboxamide]
18 | < 25 | 50 to 80 | < 25 | CC(C)Cc1cc(NC(=O)c2csc3c2CCN(C(=O)c2cnn4ccncc24)C3)on1 [Example 183, N-(3-isobutylisoxazol-5-yl)-6-(pyrazolo[1,5-a]pyrazine-3-carbonyl)-4,5,6,7-tetrahydrothieno[2,3-c]pyridine-3-carboxamide]

Reference: US20240391936A1, “TETRAHYDROTHIENO PYRIDINE DERIVATIVES AS DDRS INHIBITORS” (CHIESI FARMACEUTICI S.P.A., priority 2021, published 2024)
